We go through 4 molecules from US6391863B1, “Use of carbohydrates for promoting skin desquamation” (L'Oreal, priority 1995, dated 2002).

This test has as its system Banderia simplicifolia isolectin B4. As to the kind of experiment: Inhibition of lectin-induced haemagglutination (model of corneocyte cohesion). In kind it is cell-based. The following applies: rabbit erythrocytes; lectin at twice its minimum haemagglutinating concentration; carbohydrate starting solution 0.1M, successive dilutions; 30 min contact at ambient temperature. The protocol: A test to measure the efficacy of the carbohydrates was carried out in vitro. […] The principle of the test lies in the fact that the lectin causes agglutination of the erythrocytes. The products to be tested, which are prepared at various dilutions, are added to the lectin solutions. The minimum concentration of product allowing the inhibition of haemagglutination caused by the lectin is measured. […] To carry out the tests, rabbit erythrocytes marketed by the company Biomérieux under the reference 72291 are employed. These erythrocytes are used in 50% suspension in water. The lectin used is Banderia simplicifolia isolectin B4, marketed by the company SYGMA. All the solutions are diluted in phosphate buffer containing calcium and magnesium. The lectin is dissolved in the phosphate buffer at a concentration of 1 mg/ml. 25 μl of phosphate buffer are distributed in all the wells of the microtitre plates. 25 μl of the lectin to be tested are added to the second well. After homogenization, 25 μl from this well are transferred into the following well and so on to obtain successive dilutions. The erythrocytes are diluted to 1/10^e (fresh solution) . 5 μl of the suspension and 5 μl of the contents of a well are placed on a plate. After mixing by rotation, it is observed whether or not there is haemagglutination. The latter develops in 5 min at the maximum. The minimum quantity of lectin is thus measured, which allows a clear erythrocyte haemagglutination to be obtained. After having measured the minimum quantity of lectin which allows a clear erythrocyte haemagglutination to be obtained, it is chosen to work at twice the concentration. 25 μl of phosphate buffer are placed in microtitre plates to carry out a negative control. In the other wells are distributed 25 μl of lectin at the determined concentration. In the second well are added 25 μl of phosphate buffer to obtain a positive control. In the third well are placed 25 μl of the carbohydrate derivative to be tested in solution at a concentration of 0.1M. After homogenization, 25 μl from this well are taken and placed in the following well and so on so as to obtain successive dilutions. After having left the lectin and the carbohydrate derivative in contact for 30 min at ambient temperature, 5 μl are placed on a plate and are mixed with 5 μl of erythrocyte suspension. It is observed whether or not there is haemagglutination after agitation by rotation. The lowest carbohydrate dilution allowing inhibition of haemagglutination to be observed is measured. The result is given as a fraction (corresponding to the dilution) of the initial concentration (0.1M).
As for `CCCCCCCC(=O)OC[C@H]1O[C@H](O[C@H]2[C@H](O)[C@@H](O)[C@H](O)O[C@@H]2CO)[C@H](O)[C@@H](O)[C@@H]1O` [6′-O-octanoyl-D-maltose, 6′-O-octanoyl-β-D-maltose], the “lowest carbohydrate dilution allowing inhibition of haemagglutination to be observed, given as a fraction (corresponding to the dilution) of the initial concentration (0.1M)” value is listed as “¼”.
For the molecule `CCCCCCCCOC(=O)N(C)C[C@H](O)[C@@H](O)[C@H](O)[C@H](O)CO` [N-octyloxycarbonyl-N-methyl-D-glucamine], the “lowest carbohydrate dilution allowing inhibition of haemagglutination to be observed, given as a fraction (corresponding to the dilution) of the initial concentration (0.1M)” value is on record as 1/64.
With `CC(=O)N[C@H]1C(O)O[C@H](CO)[C@@H](O)[C@@H]1O` (stereo partly drawn) [N-acetyl-D-glucosamine, reference compound] the entry was “no inhibition observed”; with “N-2-ethylhexyloxy-carbonyl-N-methyl-D-glucamine”, 1/16.
